In BindingDB's records for doi:10.1016/j.ejmech.2023.115404 (Southwest Jiaotong University, 2023):

Biological target: Dual leucine zipper kinase (MAP3K12) (Homo sapiens)
Experiment: Binding affinity to DLK (unknown origin) assessed as inhibition constant

Ki | Structure (SMILES)
145 nM | CC(C)n1nc(Nc2cc(C(F)(F)F)ccn2)cc1C1CCNCC1
33 nM | CC(=O)N1CCC(c2cc(Nc3cc(C(F)(F)F)ccn3)nc(N3CCC(F)(F)C3)n2)CC1
